Source: ChEMBL document CHEMBL5236561, “Rugonidines A-F, Diastereomeric 1,6-Dioxa-7,9-diazaspiro[4.5]dec-7-en-8-amines from the Leaves of Alchornea rugosa” (J Nat Prod, 2021)
Activity calls are given as the source filed them.

Key:
Assay type in all cases: functional, cell-based
[1] = system: 3T3-L1; experiment: Induction of glucose uptake in mouse 3T3-L1 cells assessed as stimulation of in 2-NBDG uptake by measuring fluorescence intensity at 20 uM incubated for 1 hr in glucose free media hr by fluorescence microscopic analysis
[2] = system: 3T3-L1; experiment: Induction of glucose uptake in mouse 3T3-L1 cells assessed as stimulation of in 2-NBDG uptake by measuring fluorescence intensity incubated for 1 hr in glucose free media hr by fluorescence microscopic analysis; details: dose 5-20 µM
[3] = system: 3T3-L1; experiment: Induction of glucose uptake in mouse 3T3-L1 cells assessed as stimulation of in 2-NBDG uptake by measuring fluorescence intensity at 5 to 20 uM incubated for 1 hr in glucose free media hr by fluorescence microscopic analysis; details: dose 5-20 µM

Measured: Activity

C[C@@H]1O[C@@H](O[C@H]2Cc3c(O)cc4c(c3O[C@@H]2c2ccc(O)c(O)c2)C(C)(C)[C@@]2(CNC(N)=NO2)O4)[C@H](O)[C@H](O)[C@H]1O
active: [1] | [2] Dose-Dependent Effect | [3]

CC(C)=CCNC1=NO[C@]2(CN1)Oc1cc(O)c3c(c1C2(C)C)O[C@H](c1ccc(O)c(O)c1)[C@@H](O[C@@H]1O[C@@H](C)[C@H](O)[C@@H](O)[C@H]1O)C3
active: [1] | [2] Dose-Dependent Effect | [3]

CC(C)=CCNC1=NO[C@@]2(CN1)Oc1cc(O)c3c(c1C2(C)C)O[C@H](c1ccc(O)c(O)c1)[C@@H](O[C@@H]1O[C@@H](C)[C@H](O)[C@@H](O)[C@H]1O)C3
active: [1] | [2] Dose-Dependent Effect | [3]
